Laboratory results: patent publication US10023554B2, “Halogen-substituted heterocyclic compound salt” (UBE INDUSTRIES, LTD., priority 2014, dated 2018)

Tested on: A2058 human melanoma cells
Experiment: Cell migration test (LPA-induced migration, Chemo-Tx)
Format: cell-based
Conditions: LPA final concentration 100 nM, 3 hours at 37° C., read-out: concentration (IC50) of the test compound required for 50% inhibition of the cell migration activity of LPA
Protocol: The cell migration test was carried out using Chemo-Tx (registered trademark) (116-8, Neuro Probe). A2058 human melanoma cells (obtained from European Collection of Cell Culture) were cultured in a serum-free EMEM medium for 24 hours, and were re-suspended in a 0.1% BSA-containing DMEM medium to give a cell suspension. The test compounds dissolved in DMSO in various concentrations were each added to the cell suspension, and the suspensions were cultured at 37° C. for 15 minutes (final DMSO concentration 0.5%). LPA dissolved in a 0.1% BSA-containing DMEM medium (final concentration 100 nM) was added to a Chemo-Tx 96 well plate, and a Chemo-Tx filter coated with 0.001% Fibronectin on both sides was placed onto the plate. The cultured cell suspensions (25,000 cells) were added onto the upper surface of the filter and were further cultured at 37° C. for 3 hours. Thereafter, the cells on the upper surface of the filter were removed. After the filter was removed and was dried, the cells which had migrated to the lower surface of the filter were stained with Diff-Quik stain (16920, Sysmex). The absorbance of the filter (570 nm) was measured and the concentration (IC50) of the test compound required for 50% inhibition of the cell migration activity of LPA was determined by non-linear regression analysis using EXSAS (version 7.6.0, Arm Systex).

COc1cc(-c2sc(Cl)cc2NC(=O)O[C@H](C)c2ccccc2)ccc1-c1ccc(C2(C(=O)O)CC2)cc1 [Example 1, Sodium (R)-1-[4′-(5-chloro-3-{[(1-phenylethoxy)carbonyl]amino}thiophen-2-yl)-2′-methoxy-[1,1′-biphenyl]-4-yl]cyclopropanecarboxylate]
IC50: ≤ 200 nM

COc1cc(-c2sc(Cl)cc2NC(=O)O[C@H](C)c2cc(F)ccc2F)ccc1-c1ccc(C2(C(=O)O)CC2)cc1 [Example 4, Sodium (R)-1-{4′-[5-chloro-3-({[1-(2,5-difluorophenyl)ethoxy]carbonyl}amino)thiophen-2-yl]-2′-methoxy-[1,1′-biphenyl]-4-yl}cyclopropanecarboxylate]
IC50: ≤ 200 nM

COc1cc(-c2sc(F)cc2NC(=O)O[C@H](C)c2ccccc2Cl)ccc1-c1ccc(C2(C(=O)O)CC2)cc1 [Example 7, Sodium (R)-1-{4′-[3-({[1-(2-chlorophenyl)ethoxy]carbonyl}amino)-5-fluorothiophen-2-yl]-2′-methoxy-[1,1′-biphenyl]-4-yl}cyclopropanecarboxylate]
IC50: ≤ 200 nM

C[C@@H](OC(=O)Nc1cc(Cl)sc1-c1ccc(-c2ccc(C3(C(=O)O)CC3)cc2)cc1)c1ccsc1 [Example 10, Sodium (R)-1-{4′-[5-chloro-3-({[1-(thiophen-3-yl)ethoxy]carbonyl}amino)thiophen-2-yl]-[1,1′-biphenyl]-4-yl}cyclopropanecarboxylate]
IC50: ≤ 200 nM

Cc1cscc1[C@@H](C)OC(=O)Nc1cc(F)sc1-c1ccc(-c2ccc(C3(C(=O)O)CC3)cc2)cc1 [Example 13, Sodium (R)-1-{4′-[5-fluoro-3-({[1-(4-methylthiophen-3-yl)ethoxy]carbonyl}amino)thiophen-2-yl]-[1,1′-biphenyl]-4-yl}cyclopropanecarboxylate]
IC50: ≤ 200 nM
